pIC50: −log10 of the molar value.
Test system: MM.1S cells
Test: Inhibitory effect on the proliferation of MM.1S, MTS cell viability test
Format: cell-based
Settings: Homo sapiens, MM1.S, 168 h, multiple myeloma MM.1S cells, 7 days incubation, read-out: Tumor cell inhibitory activity
How it was run: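 Viability measured by MTS (OD490 minus OD690 background, 3-4 h) after a 7-day exposure of 20,000 MM.1S cells/well to 5-fold serially diluted compound, 0.2% DMSO final. Inhibition calculated relative to DMSO wells; IC50 curve-fitted, averaged over three repeats.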

| SMILES | pIC50 |
| --- | --- |
| O=C1CCC(N2Cc3c(CCCCN4CCN(c5cccc(Cl)c5)CC4)cccc3C2=O)C(=O)N1 (centres unmarked) [Example 37, 3-(4-(4-(4-(3-chlorophenyl)piperazine-1-)butyl)-1-oxoisoindoline-2-)piperidine-2,6-dione] | > 7.00 |
| O=C1CCC(N2Cc3c(OCCCCN4CCN(c5cccc6ccsc56)CC4)cccc3C2=O)C(=O)N1 (centres unmarked) [Example 239, 3-(4-(4-(4-(benzothiophene-7-yl)piperazine-1-yl)butoxy)-1-oxoisoindoline-2-yl)piperidine-2,6-dione] | 4.70 to 6.00 |
| C[C@]1(N2Cc3c(OCCCN4CCC(C#N)(c5cccc(Cl)c5)CC4)cccc3C2=O)CCC(=O)NC1=O [Example 52, (S)-4-(3-chlorophenyl)-1-(3-((2-(3-methyl-2,6-dioxopiperidine-3-)-1-oxoisoindole-4-)oxy)propyl)piperidine-4-carbonitrile] | 4.70 to 6.00 |
| COc1ccccc1N1CCN(CCCCc2cccc3c2CN(C2CCC(=O)NC2=O)C3=O)CC1 (centres unmarked) [Example 224, 3-(4-(4-(4-(2-methoxyphenyl)piperazine-1-yl)butyl)-1-isoindoline-2-yl)piperidine-2,6-dione] | > 7.00 |
| N#Cc1cccc(C2(C#N)CCN(CCCOc3cccc4c3CN(C3CCC(=O)NC3=O)C4=O)CC2)c1 (centres unmarked) [Example 67, 4-(3-cyanophenyl)-1-(3-((2-(2,6-dioxopiperidine-3-)-1-oxoisoindoline-4-)oxy)propyl)piperidine-4-carbonitrile] | 6.00 to 7.00 |
| O=C1CCC(N2Cc3c(CCCCCN4CCC5(CC4)COc4ccccc45)cccc3C2=O)C(=O)N1 (centres unmarked) [Example 145] | 6.00 to 7.00 |
| N[C@@H](CCCc1cccc2c1CN(C1CCC(=O)NC1=O)C2=O)c1nc2ccccc2[nH]1 (stereo partly drawn) [Example 199, 3-(4-((S)-4-amino-4-(1H-benzo(d)imidazole-2-)butyl)-1-oxoisoindoline-2-)piperidine-2,6-dione] | < 4.70 |
| O=C1CCC(N2Cc3c(OCCCCN4CCC5(CC4)OCc4ccc(F)cc45)cccc3C2=O)C(=O)N1 (centres unmarked) [Example 128, 3-(4-(4-(6-fluoro-3H-spiro[isobenzofuran-1,4′-piperidine]-1′-)butoxy)-1-oxoisoindoline-2-)piperidine-2,6-dione] | > 7.00 |
| N#CC1(c2ccc(Cl)cc2)CCN(CCCCOc2cccc3c2CN(C2CCC(=O)NC2=O)C3=O)CC1 (centres unmarked) [Example 77, 4-(4-chlorophenyl)-1-(4-((2-(2,6-dioxopiperidine-3-)-1-oxoisoindoline-4-)oxy)butyl)piperidine-4-carbonitrile] | 6.00 to 7.00 |
| O=C1CCC(N2Cc3c(CCCCN4CCC5(CC4)OCc4ccccc45)cccc3C2=O)C(=O)N1 (centres unmarked) [Example 149, 3-(4-(4-(3H-spiro[isobenzofuran-1,4′-piperidine]-1′-)butyl)-1-oxoisoindoline-2-)piperidine-2,6-dione] | 6.00 to 7.00 |
| CC(=O)N[C@@H](CCCc1cccc2c1CN(C1CCC(=O)NC1=O)C2=O)c1nc2ccccc2[nH]1 (stereo partly drawn) [Example 203, N-((1S)-1-(1H-benzo[d]imidazole-2-)-4-(2-(2,6-dioxopiperidine-3-)-1-oxoisoindoline-4-)butyl)amide] | 6.00 to 7.00 |
| O=C1CCC(N2Cc3c(CCCCN4CCN(c5ccc(Cl)cc5)CC4)cccc3C2=O)C(=O)N1 (centres unmarked) [Example 41, 3-(4-(4-(4-(4-chlorophenyl)piperazine-1-)butyl)-1-oxoisoindoline-2-)piperidine-2,6-dione] | > 7.00 |
| N[C@@H](CCCc1cccc2c1CN(C1CCC(=O)NC1=O)C2=O)c1nc2ccncc2[nH]1 (stereo partly drawn) [Example 201, 3-(4-((S)-4-amino-4-(3H-imidazole[4,5-c]pyridine-2-)butyl)-1-oxoindoline-2-)piperidine-2,6-dione] | < 4.70 |
| N#CC1(c2ccc(Cl)cc2Cl)CCN(CCCOc2cccc3c2CN(C2CCC(=O)NC2=O)C3=O)CC1 (centres unmarked) [Example 70, 4-(2,4-chlorophenyl)-1-(3-((2-(2,6-dioxopiperidine-3-)-1-oxoisoindoline-4-)oxy)propyl)piperidine-4-carbonitrile] | > 7.00 |
| O=C1CCC(N2Cc3c(CCCCCOc4cccc5cnccc45)cccc3C2=O)C(=O)N1 (centres unmarked) [Example 5] | 6.00 to 7.00 |
| N#CC1(c2ccc(OC(F)(F)F)cc2)CCN(CCCCc2cccc3c2CN(C2CCC(=O)NC2=O)C3=O)CC1 (centres unmarked) [Example 99, 1-(4-(2-(2,6-dioxopiperidine-3-)-1-oxoisoindoline-4-)butyl)-4-(4-trifluoromethoxyphenyl)piperidine-4-carbonitrile] | > 7.00 |
| O=C1CCC(N2Cc3c(OCCCOc4ccnc5ccccc45)cccc3C2=O)C(=O)N1 (centres unmarked) [Example 4, 3-(1-oxo-4-(3-(quinoline-4-oxy)propoxy)isoindoline-2-)piperidine-2,6-dione] | 4.70 to 6.00 |
| N#CC1(c2ccc(Cl)cc2Cl)CCN(CCCCc2cccc3c2CN(C2CCC(=O)NC2=O)C3=O)CC1 (centres unmarked) [Example 101, 4-(2,4-chlorophenyl)-1-(4-(2-(2,6-dioxopiperidine-3-)-1-oxoisoindoline-4-)butyl)piperidine-4-carbonitrile] | > 7.00 |
| Cc1cc(OCCCCOc2cccc3c2C(=O)N(C2CCC(=O)NC2=O)C3=O)c2ccccc2n1 (centres unmarked) [Example 108, 2-(2,6-dioxopiperidine-3-)-4-(4-((2-methylquinoline-4-)oxy)butoxy)isoindoline-1,3-dione] | 4.70 to 6.00 |
| C[C@]1(N2C(=O)c3cccc(OCCCN4CCC(C#N)(c5ccccc5OC(F)(F)F)CC4)c3C2=O)CCC(=O)NC1=O [Example 58, (S)-1-(3-((2-(3-methyl-2,6-dioxopiperidine-3-)-1,3-dioxoisoindoline-4-)oxy)propyl)-4-(2-(trifluoromethoxy)phenyl)piperidine-4-carbonitrile] | 4.70 to 6.00 |
| N#CC1(c2c(Cl)cccc2Cl)CCN(CCCCCc2cccc3c2CN(C2CCC(=O)NC2=O)C3=O)CC1 (centres unmarked) [Example 250, 4-(2,6-dichlorophenyl)-1-(5-(2-(2,6-dioxopiperidin-3-yl)-1-oxoisoindoline-4-yl)pentyl)piperidine-4-carbonitrile] | 6.00 to 7.00 |
| CC(=O)N[C@@H](CCCc1cccc2c1CN(C1CCC(=O)NC1=O)C2=O)C(=O)N1CCC2(CC1)OCc1ccccc12 (stereo partly drawn) [Example 207, N-((2S)-5-(2-(2,6-dioxopiperidine-3-)-1-oxoisoindoline-4-)-1-oxo-1-(3H-spiro[isobenzofuran-1,4′-piperidine]-1′-)pentyl-2-)acetamide] | 6.00 to 7.00 |
| O=C1CCC(N2Cc3c(CCCCCN4CCC5(CC4)OCc4ccccc45)cccc3C2=O)C(=O)N1 (centres unmarked) [Example 123, 3-(4-(5-(3H-spiro[isobenzofuran-1,4′-piperidine]-1′-)pentyl)-1-oxoisoindoline-2-)piperidine-2,6-dione] | > 7.00 |
| O=C1CCC(N2Cc3c(CCCCCN4CCC5(CC4)OCc4ccc(F)cc45)cccc3C2=O)C(=O)N1 (centres unmarked) [Example 156, 3-(4-(5-(6-fluoro-3H-spiro[isobenzofuran-1,4′-piperidine]-1′-)pentyl)-1-oxoisoindoline-2-)piperidine-2,6-dione] | > 7.00 |
| CC1CCc2cc(F)ccc2N1CCCCCc1cccc2c1CN(C1CCC(=O)NC1=O)C2=O (centres unmarked) [Example 104, 3-(4-(5-(6-fluoro-2-methyl-3,4-dihydroquinoline-1(2H))pentyl)-1-oxoisoindoline-2-) piperidine-2,6-dione] | 6.00 to 7.00 |
| N#CC1(c2ccc(Cl)cc2)CCN(CCCCCCc2cccc3c2CN(C2CCC(=O)NC2=O)C3=O)CC1 (centres unmarked) [Example 102, 4-(4-chlorophenyl)-1-(6-(2-(2,6-dioxopiperidine-3-)-1-oxoisoindoline-4-)hexyl)piperidine-4-carbonitrile] | > 7.00 |
